Measurements published in US9113629B2, “4-amino-6-(4-substituted-phenyl)-picolinates and 6-amino-2-(4-substituted-phenyl)-pyrimidine-4-carboxylates and their use as herbicides” (DOW AGROSCIENCES LLC, priority 2013, dated 2015).
Read-outs that look alike come from different tables or passages of the source.

What was measured:
[1] = test system: Key Grass and Sedge Weeds as well as Grass Crops; assay: Post-emergent Test II herbicidal activity (Table 6); assay type: in vivo; details: post-emergence, 336 h; for pest or weed control at 70 g/ha: application rate 70 g ai/ha; for pest or weed control at 140 g/ha: application rate 140 g ai/ha
In short: (§1)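 Compounds, dissolved in 97:3 acetone/DMSO and diluted into an aqueous carrier containing crop oil concentrate and Triton X-155, are applied over the top of young plants at 187 L/ha. Injury is scored visually at 14 d, 0% meaning no effect and 100% complete kill.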

[2] = test system: Key Broadleaf Weed and Crop Species; assay: Post-emergent Test II herbicidal activity (Table 5); assay type: in vivo; details: post-emergence, 336 h, post-emergent, 14 days after application; for pest or weed control at 70 g/ha: 70 g ai/ha; for pest or weed control at 140 g/ha: 140 g ai/ha
In short: as §1

[3] = CYPES: yellow nutsedge (Cyperus esculentus), read-out: Visual Growth Reduction (%) 14 Days After Application, CYPES
[4] = DIGSA: crabgrass (Digitaria sanguinalis), read-out: Visual Growth Reduction (%) 14 Days After Application, DIGSA
[5] = ECHCG: barnyardgrass (Echinochloa crus-galli), read-out: Visual Growth Reduction (%) 14 Days After Application, ECHCG
[6] = ORYSA: rice (Oryza sativa), read-out: Visual Growth Reduction (%) 14 Days After Application, ORYSA
[7] = SETFA: giant foxtail (Setaria faberi), read-out: Visual Growth Reduction (%) 14 Days After Application, SETFA
[8] = SORVU: grain sorghum (Sorghum vulgare), read-out: Visual Growth Reduction (%) 14 Days After Application, SORVU
[9] = TRZSS (wheat, Triticum aestivum), read-out: Visual Growth Reduction (%) 14 Days After Application, TRZSS
[10] = ZEAMX: maize, corn (Zea mays), read-out: Visual Growth Reduction (%) 14 Days After Application, ZEAMX
[11] = ABUTH: velvetleaf (Abutilon theophrasti), read-out: Visual Growth Reduction (%) 14 Days After Application ABUTH
[12] = AMARE: redroot pigweed (Amaranthus retroflexus), read-out: Visual Growth Reduction (%) 14 Days After Application AMARE
[13] = BRSNN: oilseed-rape, canola (Brassica napus), read-out: Visual Growth Reduction (%) 14 Days After Application BRSNN
[14] = CHEAL: lambsquarters (Chenopodium album), read-out: Visual Growth Reduction (%) 14 Days After Application CHEAL
[15] = EPHHL: wild poinsettia (Euphorbia heterophylla), read-out: Visual Growth Reduction (%) 14 Days After Application EPHHL
[16] = HELAN: sunflower (Helianthus annuus), read-out: Visual Growth Reduction (%) 14 Days After Application HELAN
[17] = VIOTR: wild pansy (Viola tricolor), read-out: Visual Growth Reduction (%) 14 Days After Application VIOTR

## Nc1cc(-c2c(F)cc(I)c(F)c2F)nc(C(=O)O)c1Cl [Compound 68]
[1]; [3]
  pest or weed control at 70 g/ha: 95 to 100%
  pest or weed control at 140 g/ha: 95 to 100%
[1]; [4]
  pest or weed control at 70 g/ha: 75 to 84%
  pest or weed control at 140 g/ha: 75 to 84%
[1]; [5]
  pest or weed control at 70 g/ha: 85 to 94%
  pest or weed control at 140 g/ha: 75 to 84%
[1]; [6]
  pest or weed control at 70 g/ha: 45 to 59%
  pest or weed control at 140 g/ha: 45 to 59%
[1]; [7]
  pest or weed control at 70 g/ha: 85 to 94%
  pest or weed control at 140 g/ha: 75 to 84%
[1]; [8]
  pest or weed control at 70 g/ha: 95 to 100%
  pest or weed control at 140 g/ha: 95 to 100%
[1]; [9]
  pest or weed control at 70 g/ha: 30 to 44%
  pest or weed control at 140 g/ha: 45 to 59%
[1]; [10]
  pest or weed control at 70 g/ha: 0 to 29%
  pest or weed control at 140 g/ha: 75 to 84%
[2]; [11]
  pest or weed control at 70 g/ha: 85 to 94%
  pest or weed control at 140 g/ha: 85 to 94%
[2]; [12]
  pest or weed control at 70 g/ha: 95 to 100%
  pest or weed control at 140 g/ha: 95 to 100%
[2]; [13]
  pest or weed control at 70 g/ha: 95 to 100%
  pest or weed control at 140 g/ha: 95 to 100%
[2]; [14]
  pest or weed control at 70 g/ha: 95 to 100%
  pest or weed control at 140 g/ha: 95 to 100%
[2]; [15]
  pest or weed control at 70 g/ha: 95 to 100%
  pest or weed control at 140 g/ha: 95 to 100%
[2]; [16]
  pest or weed control at 70 g/ha: 60 to 74%
  pest or weed control at 140 g/ha: 0 to 29%
[2]; [17]
  pest or weed control at 70 g/ha: 95 to 100%
  pest or weed control at 140 g/ha: 95 to 100%
other
  melting point: 170.1 to 172.6 °C
